Legend:
[1] = Test of scavenging DPPH radical (Test Example 8, 517 nm); settings: final concentration of 10 μg/mL; 20 minutes, room temperature
Procedure: Using the compound 7 obtained in Example 2 as well as dl-α-tocopherol (manufactured by Tokyo Kasei Kogyo Co., Ltd.) and butylhydroxytoluene (BHT) as comparative controls, a test of scavenging DDPH (1,1-diphenyl-2-picrylhydrazyl) radical, a stable radical, was carried out.
1 ml of 200 μM DPPH ethanol solution was added to 800 μl of 100 mM Tris-HCl buffer (pH 7.4) and 200 μl of an ethanol solution of the compound 7 (a final concentration of 10 μg/mL), followed by sufficient stirring. After the resulting mixture was allowed to stand in a dark place at room temperature for 20 minutes, the absorbance at 517 nm was measured (absorbance of the test solution)
The compound 13 of the invention as well as dl-α-tocopherol and butylhydroxytoluene as a known radical scavenger were similarly tested.
As a control, 800 μl of 100 mM Tris-HCl buffer (pH 7.4), 200 μl of ethanol, and 1 ml of 200 μM DPPH ethanol solution were used in the same manner as described above and the absorbance was measured (absorbance of the control solution).
With the individual compounds, the same measurement was repeated three times, and the mean value was inserted in the following formula to calculate a DPPH radical-scavenging ratio (%). DPPH radical-scavenging ratio (%)=[1−(absorbance of sample solution/absorbance of control solution)]×100

[2] = Test of scavenging DPPH radical (Test Example 9, microplate reader, 540 nm); settings: final concentration of 25 μg/mL; 20 minutes, room temperature
Excerpt: Using the compound 36 obtained in Example 20, the compound 37 obtained in Example 21, the compound 38 obtained in Example 22, the compound 39 obtained in Example 23, the compound 40 obtained in Example 24, the compound 42 obtained in Example 26, the compound 45 obtained in Example 29, the compound 46 obtained in Example 30, the compound 48 obtained in Example 32 and, as a comparative control, dl-α-tocopherol (manufactured by Tokyo Kasei Kogyo Co., Ltd.), a test of scavenging DDPH (1,1-diphenyl-2-picrylhydrazyl) radical, a stable radical, was carried out.
100 μl of 800 μM DPPH ethanol solution was added to 80 μl of 100 mM Tris-HCl buffer (pH 7.4) and 20 μl of an ethanol solution of the compound 36 (final concentration of 25 μg/mL), followed by sufficient stirring. After the resulting mixture was allowed to stand in a dark place at room temperature for 20 minutes, the absorbance at 540 nm was measured on a microplate reader (absorbance of the test solution).
The compounds 37, 38, 39, 40, 42, 45, 46, and 48 of the invention as well as dl-α-tocopherol as a known radical scavenger were similarly tested.
As a control, using 80 μl of 100 mM Tris-HCl buffer (pH 7.4), 20 μl of ethanol, and 100 μl of 800 μM DPPH ethanol solution, the same operation was carried out as described above and the absorbance was measured (absorbance of the control solution).
With the individual compounds, the same measurement was repeated four times, and the mean value was inserted in the following formula to calculate a DPPH radical-scavenging ratio. DPPH radical-scavenging ratio (%)=[1−(absorbance of sample solution/absorbance of control solution)]×100

[3] = Test of suppressing lipid peroxide formation using linoleic acid
Procedure: Using the compound 7 obtained in Example 2, the compound 38 obtained in Example 22, the compound 40 obtained in Example 24, the compound 42 obtained in Example 26, the compound 46 obtained in Example 30, and as a comparative control, dl-α-tocopherol (manufactured by Tokyo Kasei Kogyo Co., Ltd.), a test of suppressing lipid peroxide formation was carried out using linoleic acid.
(1) After ethanol (2.0 g) was added to linoleic acid (0.2 g, manufactured by Tokyo Kasei Kogyo Co., Ltd.), the compound 7 (0.01 g), and a surfactant Nissan OT-221 (0.4 g, manufactured by NOF Corporation) placed in a 50-ml screw vial and they was dissolved one another, distilled water (17.39 g) was added to the resulting solution and the whole was stirred. Then, the whole was tightly sealed and allowed to stand in a constant-temperature chamber at 40° C. Such sample was prepared in a duplex manner.
The same operation was carried out on the compounds 38, 40, 42, 46, dl-α-tocopherol, and a sample with addition of no test compound (blank).
(2) The amount of remaining linoleic acid after one week, 2 weeks, 3 weeks, and 4 weeks from the start of the test was quantitatively determined by HPLC.
The HPLC analytical conditions were as follows: Wavelength for detection: 210 nm; Mobile phase: a mixed solution of a Mc Ilvaine buffer adjusted to pH 2.6 and methanol (10:90); Flow rate: 1 ml/min; Column: ODS-80Ts (4.6 φmm×150 mm); and Column temperature: 40° C.
(3) Quantitative determination by HPLC was carried out on each sample one time. The ratio of remaining linoleic acid was calculated on the basis of the mean value of values obtained in two-times measurement.

mushroom tyrosinase = test: Tyrosinase activity inhibition test using L-dopa as substrate (Test Examples 3 to 6, microplate reader, 490 nm); assay type: biochemical; settings: Table 6, 0.50 mg/mL
Procedure: Using the compound 37 obtained in Example 21, the compound 38 obtained in Example 22, the compound 39 obtained in Example 23, and arbutin (manufactured by Tokyo Kasei Kogyo Co., Ltd.) as a comparative control, a tyrosinase activity inhibition test was carried out using L-dopa as a substrate.
The specific test procedures are as follows. • (1) 72 μl of a phosphate buffer prepared by dissolving 1.000 g of sodium dihydrogen phosphate and 1.186 g of disodium hydrogen phosphate in 500 ml of distilled water, 80 μl of a substrate solution prepared by dissolving 32.7 mg of L-DOPA in 200 ml of distilled water, and 8 μl of a test solution prepared by dissolving the test compound in dimethyl sulfoxide were mixed together. • (2) 80 μl of an enzyme solution prepared by dissolving 3.0 mg (2400 units; manufactured by Sigma Corporation) of mushroom tyrosinase in 7.0 ml of distilled water and diluting the solution with the above phosphate buffer so as to make it five times in amount was added to the solution prepared in (1), and the whole was stirred for 15 seconds. The resulting solution was maintained at 25° C., and the absorbance at 490 nm was measured by a microplate reader one minute and 45 seconds later and 2 minutes and 45 seconds later. • (3) The test operations in the above (1) and (2) were conducted four times for the individual test compounds and blank test (only dimethyl sulfoxide), and the resulting numeric value was inserted in the following calculation formula and a mean value thereof was regarded as a tyrosinase activity inhibition ratio (%). Tyrosinase activity inhibition ratio (%)=[(T^1−T^2)/T^1]×100 • T^1=difference in absorbance of solution with addition of no test compound between 2 minutes and 45 seconds later and one minute and 45 seconds later • T^2=difference in absorbance of solution with addition of test compound was added between 2 minutes and 45 seconds later and one minute and 45 seconds later
(§1) Using the compound 42 obtained in Example 26, the compound 45 obtained in Example 29, the compound 46 obtained in Example 30, and arbutin (manufactured by Tokyo Kasei Kogyo Co., Ltd.) as a comparative control, a tyrosinase activity inhibition test was carried out using L-dopa as a substrate. The test procedure was in accordance with Test Example 3.
as §1, with “34” for “42”, “18,” for “26,”, “47” for “45”, “31,” for “29, the compound 46 obtained in Example 30,”
Using the compound 48 obtained in Example 32 and arbutin (manufactured by Tokyo Kasei Kogyo Co., Ltd.) as a comparative control, a tyrosinase activity inhibition test was carried out using L-dopa as a substrate. The test procedure was in accordance with Test Example 3.

SMILES | DPPH radical-scavenging ratio (%) [1] | DPPH radical-scavenging ratio (%) [2] | Ratio of remaining linoleic acid (%) ([3]; After 1 week at 40° C.) | Ratio of remaining linoleic acid (%) ([3]; After 2 weeks at 40° C.) | Ratio of remaining linoleic acid (%) ([3]; After 3 weeks at 40° C.) | Ratio of remaining linoleic acid (%) ([3]; After 4 weeks at 40° C.) | Tyrosinase activity inhibition ratio (%) (mushroom tyrosinase; 0.25 mg/mL) | Tyrosinase activity inhibition ratio (%) (mushroom tyrosinase; 0.5 mg/mL)
Cc1c(C)c2c(c(C)c1O)CCC(C)(CCCC(C)CCCC(C)CCCC(C)C)O2 (racemic) [Tocopherol, dl-α-tocopherol] | 28.4% | 14.9% | 88.7% | 81.3% | 69.7% | 50.0% | – | –
COc1cc(CCC(O)CC(CCCCCCO)OC)ccc1O (stereo not drawn) [Compound 48] | – | 33.5% | – | – | – | – | 38.2% | 47.1%

From patent publication US7355063B2, “Shogaol compound and tyrosinase activity inhibitor comprising the compound” (Toagosei Co., Ltd., priority 2003, dated 2008)
